The source of these data is patent US8067197B2, “Soluble recombinant αvβ3 adhesion receptor” (Merck Patent GmbH, priority 1996, dated 2011).

Square brackets hold non-standard residues; d marks the D form. βAla = NCCC(=O)O

For test [1], the target named is αVβ3 receptor (placenta, full length recombinant, soluble recombinant). The test is described as follows: Competition assay: inhibition of biotinylated vitronectin binding to immobilized integrin. Set-up: species or system human. Particulars: biotinylated vitronectin 1 μg/ml, 3 h, 37° C.
Protocol: The truncated and full length recombinant αVβ3 and placenta αVβ3 are immobilized and binding of biotinylated ligands is examined. Three purified RGD-containing ligands—vitronectin, fibrinogen and fibronectin—that are known to bind to αVβ3 are used. […] Biotinylated vitronectin and increasing concentrations of above-specified peptides or non-peptidic analogues are incubated in parallel with immobilized receptor.
Integrins were immobilized as described above. Serially diluted cyclic peptides were added in parallel with biotinylated vitronectin (1 μg/ml). After 3 h incubation at 37° C., bound ligand was detected as described above. […]
The subject of test [2] is αV and β3 virus infected Sf9 cells. As to the kind of experiment: Cell shape change studies of virus-infected Sf9 cells on vitronectin coated plates. In kind it is cell-based, insect. As to conditions: result in words. From the text:
Integrins determine and modulate the cell shape by acting as structural links between the extracellular matrix and the cytoskeleton (Schwartz et al. 1995, Ann. Rev. Cell Dev. Biol. 11, 549; Montgomery et al. 1994, Proc. Natl. Acad. Sci. USA 91, 8856). In later phases of baculovirus infection, Sf9/High Five cells are usually rounded and loosely attached (FIG. 3A), as were the cells infected with either of the αV or β3 expressing recombinant baculovirus alone or with the null recombinant virus (FIG. 3A). […] No shape change is observed in cells co-infected with αV(FL)+β3(SL) or αV(SL)+β3(SL). […] Correspondingly, cell shape change of αV and β3 virus infected Sf9 cells on vitronectin coated plates are inhibited when challenged with RGD peptides (Table 1).
Sf9 cells (1×10^6 cells/well) were allowed to adhere to six-well plates either virgin or coated with purified human plasma vitronectin (5 μg/ml in PBS; 2 hours) followed by blocking of non-specific sites (3% BSA (w/v) in PBS), then infected with various virus combinations. The cells were observed 48 hours post-infection for cell shape change.

For test [3], the system named is αVβ3 receptor (placenta, full length recombinant, soluble recombinant). As to the kind of experiment: Ligand binding assay: biotinylated ligands on immobilized integrins. As to conditions: full length and soluble recombinant αVβ3, compared with placental αVβ3; result in words. Set-up: species or system human. On the procedure:
The truncated and full length recombinant αVβ3 and placenta αVβ3 are immobilized and binding of biotinylated ligands is examined. Three purified RGD-containing ligands—vitronectin, fibrinogen and fibronectin—that are known to bind to αVβ3 are used. […] Vitronectin is used for testing specific interaction with the recombinant αVβ3. Biotinylated vitronectin and increasing concentrations of above-specified peptides or non-peptidic analogues are incubated in parallel with immobilized receptor.
Proteins in PBS were diluted with 5-fold concentrated ligation buffer [500 mM NaCl, 500 mM NaHCO3] to 1 mg/ml protein. Freshly prepared N-hydroxysuccinimidobiotin (Sigma) [1 mg/ml in DMSO] was added to 0.1 mg/ml and incubated for 2 h at 20° C. After dialysis [PBS, 0.025% NaN3], protein concentration was determined. The biotinylated proteins were stored at 4° C.
Ligand Binding assay Integrins were diluted to 1 μg/ml in coating buffer [150 mM NaCl, 1 mM CaCl2, 1 mM MgCl2, 10 μM MnCl2, 20 mM Tris-HCl; pH 7.4) and 100 μl were adsorbed overnight at 4° C. to 96-well microtitre plates. The plates were washed once with binding buffer [0.1% (w/v) BSA in coating buffer] and blocked with blocking buffer (coating buffer containing 3% (w/v) BSA) 2 h at 37° C. After rinsing with binding buffer, serially diluted biotinylated ligands were added. After incubation (3 h, 37° C.), unbound ligand was washed from the plate with binding buffer, and bound biotin was detected by incubation with antibiotin-alkaline-phosphatase conjugated antibody and detection of bound antibody with p-Nitrophenyl-phosphate (BIO-RAD) substrate.
Target sequence in this assay (P06756 31-987 limits assumed): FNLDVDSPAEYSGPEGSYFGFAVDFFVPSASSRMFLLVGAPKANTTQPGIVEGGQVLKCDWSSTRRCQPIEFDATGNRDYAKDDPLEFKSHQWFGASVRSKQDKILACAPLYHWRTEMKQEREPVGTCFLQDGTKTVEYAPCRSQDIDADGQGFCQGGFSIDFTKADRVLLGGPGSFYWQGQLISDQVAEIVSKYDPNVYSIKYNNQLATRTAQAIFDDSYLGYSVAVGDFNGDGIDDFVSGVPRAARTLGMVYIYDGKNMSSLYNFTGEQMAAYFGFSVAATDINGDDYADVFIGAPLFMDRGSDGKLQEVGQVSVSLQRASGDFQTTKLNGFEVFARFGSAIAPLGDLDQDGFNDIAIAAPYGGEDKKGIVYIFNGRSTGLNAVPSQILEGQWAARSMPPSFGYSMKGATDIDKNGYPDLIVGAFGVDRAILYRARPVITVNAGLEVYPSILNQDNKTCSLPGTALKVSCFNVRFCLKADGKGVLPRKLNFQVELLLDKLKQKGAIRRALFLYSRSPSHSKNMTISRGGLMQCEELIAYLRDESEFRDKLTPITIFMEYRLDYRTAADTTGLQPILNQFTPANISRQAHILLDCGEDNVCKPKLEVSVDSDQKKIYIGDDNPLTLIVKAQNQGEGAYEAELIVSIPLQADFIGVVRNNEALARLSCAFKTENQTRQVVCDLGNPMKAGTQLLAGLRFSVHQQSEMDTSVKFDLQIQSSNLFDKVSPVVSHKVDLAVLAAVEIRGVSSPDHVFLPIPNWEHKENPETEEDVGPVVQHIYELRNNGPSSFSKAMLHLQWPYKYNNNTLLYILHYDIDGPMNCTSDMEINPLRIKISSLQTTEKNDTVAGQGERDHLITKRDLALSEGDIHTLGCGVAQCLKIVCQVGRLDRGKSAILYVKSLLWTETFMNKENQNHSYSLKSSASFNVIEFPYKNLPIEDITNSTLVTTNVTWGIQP
Target sequence in this assay (P05106 27-718 limits assumed, further chain): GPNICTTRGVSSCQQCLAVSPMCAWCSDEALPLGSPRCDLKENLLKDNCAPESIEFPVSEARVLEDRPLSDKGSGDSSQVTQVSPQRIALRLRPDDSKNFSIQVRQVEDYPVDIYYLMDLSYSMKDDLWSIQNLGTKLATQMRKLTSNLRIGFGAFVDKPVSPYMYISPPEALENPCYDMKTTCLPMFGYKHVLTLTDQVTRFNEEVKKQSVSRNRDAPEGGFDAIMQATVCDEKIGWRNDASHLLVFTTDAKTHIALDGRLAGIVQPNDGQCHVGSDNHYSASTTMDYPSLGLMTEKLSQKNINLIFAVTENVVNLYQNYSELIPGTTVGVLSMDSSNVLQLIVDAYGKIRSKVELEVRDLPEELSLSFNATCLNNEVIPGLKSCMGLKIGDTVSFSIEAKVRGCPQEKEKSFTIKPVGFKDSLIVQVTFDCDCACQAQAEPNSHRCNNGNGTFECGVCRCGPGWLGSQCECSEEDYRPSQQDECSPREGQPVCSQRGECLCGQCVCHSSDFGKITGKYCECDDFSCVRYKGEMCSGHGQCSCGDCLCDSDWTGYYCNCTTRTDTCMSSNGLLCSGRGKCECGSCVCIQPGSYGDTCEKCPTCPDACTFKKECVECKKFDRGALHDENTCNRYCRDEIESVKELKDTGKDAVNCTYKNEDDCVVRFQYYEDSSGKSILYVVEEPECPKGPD

In test [4] the test system is Sf9 cells expressing full length or truncated αV or β3. The test is described as follows: Metabolic pulse labelling of proteins expressed in Sf9 cells. The class given is cell-based, insect. As to conditions: tunicamycin 10 μM or 10 μg/ml for 16 hours before and during pulse labelling; SDS-PAGE. On the procedure:
The cell extracts were resolved by SDS-PAGE under reducing conditions. The molecular mass in kDa of standard protein markers are indicated on the right. • (B) Sf9 cells infected with αV (FL) (lanes 1 and 2), αV(SL) (lane 3 and 4), β3 (FL) (lane 5 and 6) and β3(SL) (lane 7 and 8) were either treated with 10 μM Tunicamycin in DMSO (lanes 1, 3, 5 and 7) or with DMSO alone (lanes 2, 4, 6 and 8). The infected cells were metabolically pulse labelled as above. Standard protein markers are indicated on the right.
Similarly, Sf9 cells expressing full length β3 how two bands of approximately 90 kDa and 125 kDa (FIG. 2A, lane 4).
Metabolic labelling of Sf9 cells was performed as described (Summer and Smith 1987: A manual of methods for baculovirus vectors and insect cell procedures. Texas Agricultural Experiment Station Bulletin B-1555). Where indicated, tunicamycin (Sigma) was present at 10 μg/ml for 16 hours before and during pulse labelling. Cells were lysed with 100 μl of buffer [1% Nonidet® P-40, 1 mM CaCl2, 150 mM NaCl, 0.4 mM Pefabloc® (Boehringer Mann-heim), 10 μg/ml Leupeptin and E64 (Sigma), 10 mM Tris/HCl; pH 7.4; Nonidet P-40 is a detergent and Pefabloc is a protease inhibitor]. […]

In the case of `CC(C)[C@@H]1NC(=O)[C@@H](Cc2ccccc2)NC(=O)[C@H](CC(=O)O)NC(=O)CNC(=O)[C@H](CCCNC(=N)N)NC1=O` [cyc(RGDfV)], the IC50 in test [1] lay in the range of 1 to 5 nM.
With “cyc(RGEfV) (cyclo(RGE[dF]V); SMILES CC(C)[C@@H]1NC(=O)[C@@H](Cc2ccccc2)NC(=O)[C@H](CCC(=O)O)NC(=O)CNC(=O)[C@H](CCCNC(=N)N)NC1=O) [control peptide where glutamate was substituted for aspartate]”, in test [2], the “effect on cell shape change of αV and β3 virus infected Sf9 cells” value was “no effect”.
Consider “cyc(RβADfV) (cyclo(R[βAla]D[dF]V); SMILES CC(C)[C@@H]1NC(=O)[C@@H](Cc2ccccc2)NC(=O)[C@H](CC(=O)O)NC(=O)CCNC(=O)[C@H](CCCNC(=N)N)NC1=O) [control peptide where β-alanine was substituted for glycine]”, for which the “effect on cell shape change of αV and β3 virus infected Sf9 cells” value in test [2] is listed as “no effect”.
Turning to fibrinogen, the “binding of biotinylated ligand to immobilized receptor” value in test [3] was “bind both to the full length and soluble receptor preparations in a concentration dependent manner”.
Still for that read-out and setting: for fibronectin the value was “bind both to the full length and soluble receptor preparations in a concentration dependent manner”.
In the case of tunicamycin, in test [4], the “production of the slower migrating (glycosylated) band” value is “inhibits the production of the slower migrating band”.
As for “vitronectin: purified RGD-containing ligand from human plasma, biotinylated”, in test [3], the “binding of biotinylated ligand to immobilized receptor” value is “bind both to the full length and soluble receptor preparations in a concentration dependent manner”.

For orientation: IC50 means the concentration needed to halve the response being measured.
